Literature values as cited in patent US20020066702A1, “Antibacterial and antibiofilm bonded permanent magnets” (priority 2000, published 2002).

Tests used:
human fibroblast = conditions: 24 hours after a 15 minute exposure to 1% povidone-iodine, 3% hydrogen peroxide or 0.5% sodium hypochlorite
[1] = system: full thickness dermal wounds on the backs of rats; conditions: eight days after initial irrigation with 1% povidone-iodine or 0.5% sodium hypochlorite

| Compound | fibroblast survival (human fibroblast) | re-epithelialization [1] |
| --- | --- | --- |
| OCl [sodium hypochlorite] | no fibroblasts survived | substantially and statistically significantly inhibited |
| polyvinylpyrrolidone-iodine complex [povidone-iodine] | no fibroblasts survived | substantially and statistically significantly inhibited |
| OO [hydrogen peroxide] | no fibroblasts survived |  |
